Experimental findings from patent US5958950A, “Benzimidazole compounds useful for the treatment of inflammatory disease, atherosclerosis, restenosis or inhibiting lipoxygenase” (Warner-Lambert Company, priority 1998, dated 1999) are described below.

pIC50: −log10 of the molar value. Some results are limits rather than exact numbers.

For the first assay, the target named is T1, rabbit reticulocyte 15-LO (Oryctolagus cuniculus, UniProt P12530).
T1 construct: rabbit reticulocyte 15-LO; from tissue; host or cells: rabbit reticulocytes
T1 sequence (P12530 1-663): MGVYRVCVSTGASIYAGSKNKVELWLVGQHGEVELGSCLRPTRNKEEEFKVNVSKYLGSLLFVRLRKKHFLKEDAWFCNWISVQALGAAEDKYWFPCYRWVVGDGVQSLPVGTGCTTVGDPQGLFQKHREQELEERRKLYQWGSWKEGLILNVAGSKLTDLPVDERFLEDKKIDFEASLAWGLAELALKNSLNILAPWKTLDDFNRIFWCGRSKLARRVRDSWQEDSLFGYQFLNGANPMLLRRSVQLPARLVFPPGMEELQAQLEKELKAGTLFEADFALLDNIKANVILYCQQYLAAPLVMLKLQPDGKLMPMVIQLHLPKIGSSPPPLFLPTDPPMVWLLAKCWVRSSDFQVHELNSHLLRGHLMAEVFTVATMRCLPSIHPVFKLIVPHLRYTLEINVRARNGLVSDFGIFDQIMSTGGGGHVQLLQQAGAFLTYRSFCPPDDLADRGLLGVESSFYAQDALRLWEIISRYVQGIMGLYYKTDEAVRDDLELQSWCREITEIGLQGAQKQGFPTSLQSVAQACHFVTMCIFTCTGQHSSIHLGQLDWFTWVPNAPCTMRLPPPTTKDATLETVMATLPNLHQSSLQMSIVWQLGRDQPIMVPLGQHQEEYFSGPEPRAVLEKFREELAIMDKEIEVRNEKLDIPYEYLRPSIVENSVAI
Description: 15-Lipoxygenase Assay: inhibition of 15-LO with linoleic acid as substrate, HPLC method of Auerbach et al. It counts as biochemical. The note with it: HPLC method; incubation at 4° C. for 10 minutes; read-out: concentration of compounds required to inhibit 50% of the activity of 15-LO (IC50). The method, then: The compounds described above are effective inhibitors of 15-LO when evaluated in standard assays routinely utilized to measure 15-LO activity. Specifically, representative compounds were evaluated by the methods described by Auerbach, et al., Analytical Biochemistry, 1992; 201:375-380.Two in vitro assays were utilized, both utilizing rabbit reticulocyte 15-LO, and linoleic acid as substrate, to enzymatically produce a peroxide oxidation product known as 13(S)-HPODE. N-Benzoyl leucomethylene blue was utilized as a calorimetric reagent for detection and quantification of the peroxide formation. Also, HPLC was utilized to quantify the oxidation following incubation at 4° C. for 10 minutes.
The 15-LO inhibitory activity of representative compounds is presented in Table I. The data column gives the concentration of compounds required to inhibit 50% of the activity of 15-LO (IC50) when measured by the HPLC method of Auerbach, et al. [drawing 10] Wherein W, X, Y and Z are C--H and R1 is hydrogen.
As for `O=C(O)c1sc(-c2nc3ccccc3[nH]2)nc1-c1ccccc1` [Example 29, 2-(lH-Benzoimidazol-2-yl)-4-phenyl-thiazole-5-carboxylic acid], the pIC50 was below 5.00.
The same measure, in the same setting: with `Clc1ccc(Cl)c(-c2csc(-c3nc4ccccc4[nH]3)n2)c1` [Example 5] the figure was 6.68; with `O=C1c2ccccc2C(=O)N1Cc1csc(-c2nc3ccccc3[nH]2)n1` [Example 25, 2-[2-(1H-Benzoimidazole-2yl)-thiazol-4-ylmethyl]-isoindole-1,3-dione], below 5.00; with `Fc1ccc(-c2csc(-c3nc4ccccc4[nH]3)n2)cc1` [Example 3], 6.72.
Turning to `c1ccc(-c2csc(-c3nc4ccccc4[nH]3)n2)cc1` [Example 6, 2-(4-Phenyl-thiazol-2-yl)-1H-benzoimidazole], the pIC50 was 6.94.
Still for that read-out and setting: the figure for `COc1cccc(-c2csc(-c3nc4ccccc4[nH]3)n2)c1` [Example 8, 2-[4-(3-Methoxy-phenyl)-thiazol-2-yl]-1H-benzoimidazole] is 6.30; for `COc1ccc(-c2csc(-c3nc4ccccc4[nH]3)n2)cc1` [Example 10, 2-[4-(4-Methoxy-phenyl)-thiazol-2-yl]-1H-benzoimidazole] it is 5.78; for `Brc1sc(-c2nc3ccccc3[nH]2)nc1-c1ccccc1` [Example 27, 2-(5-Bromo-4-phenyl-thiazol-2-yl)-1H-benzoimidazole] it is 6.11.
The same measure, in the same setting: the figure for `Cc1ccccc1-c1csc(-c2nc3ccccc3[nH]2)n1` [Example 19, 2-(4-o-Tolyl-thiazol-2-yl)-1H-benzoimidazole] is 6.48; for `COc1ccccc1-c1csc(-c2nc3ccccc3[nH]2)n1` [Example 9, 2-[4-(2-Methoxy-phenyl)-thiazol-2-yl]-1H-benzoimidazole] it is 6.90; for `COc1cccc(OC)c1-c1csc(-c2nc3ccccc3[nH]2)n1` [Example 16, 2-[4-(2,6-Dimethoxy-phenyl)-thiazol-2-yl]-1H-benzoimidazole] it is below 5.00.
On the same count and under the same terms, the figure for `Oc1ccc(-c2csc(-c3nc4ccccc4[nH]3)n2)cc1` [Example 12, 4-[2-(1H-Benzoimidazol-2-yl)-thiazol-4-yl]-phenol] is below 5.60; for `Oc1nc(-c2nc3ccccc3[nH]2)sc1-c1ccccc1` [Example 36, 2-(1H-Benzoimidazol-2-yl)-5-phenyl-thiazol-4-ol] it is below 5.00.
Turning to `Clc1ccc(-c2csc(-c3nc4ccccc4[nH]3)n2)cc1` [Example 2], the pIC50 was 6.21.
The same measure, in the same setting: with `c1ccc(-c2csc(-c3nc4ccccc4[nH]3)n2)nc1` [Example 1] the figure was 6.44; with `c1csc(-c2csc(-c3nc4ccccc4[nH]3)n2)c1` [Example 7], 7.02; with `O=C(NCCCN1CCCCC1)c1csc(-c2nc3ccccc3[nH]2)n1` [Example 32, 2-(1H-Benzoimidazol-2-yl)-thiazole-4-carboxylic acid (3-piperidin-1-yl-propyl)-amide], below 5.00.
Turning to `Brc1ccc(-c2csc(-c3nc4ccccc4[nH]3)n2)cc1` [Example 21, 2-[4-(4-Bromo-phenyl)-thiazol-2-yl]-1H-benzoimidazole], the pIC50 is 6.34.
Same read-out and setting: the figure for `Oc1ccc(-c2csc(-c3nc4ccccc4[nH]3)n2)cc1O` [Example 13, 4-[2-(1H-Benzoimidazol-2-yl)-thiazol-4-yl]-benzene-1,2-diol] is below 5.60.
Same read-out and setting: with `COc1ccc(OC)c(-c2csc(-c3nc4ccccc4[nH]3)n2)c1` [Example 15, 2-[4-(2,5-Dimethoxy-phenyl)-thiazol-2-yl]-1H-benzoimidazole] the figure was 6.41.
On to `c1ccc(-c2ccc(-c3csc(-c4nc5ccccc5[nH]4)n3)cc2)cc1` [Example 11, 2-(4-Biphenyl-4-yl-thiazol-2-yl)-1H-benzoimidazole], for which the pIC50 was below 5.00.
As to `Clc1cccc(-c2csc(-c3nc4ccccc4[nH]3)n2)c1` [Example 20, 2-[4-(3-Chloro-phenyl)-thiazol-2-yl]-1H-benzoimidazole], the pIC50 is 6.70.

Staying with this assay, now noted: marked (P), not explained; read-out: IC50 (P).
`Oc1ccccc1-c1csc(-c2nc3ccccc3[nH]2)n1` [Example 17, 2-[2-(1H-Benzoimidazol-2-yl)-thiazol-4-yl]-phenol]: the pIC50 is 7.40.
On the same count and under the same terms, with `c1ccc2[nH]c(-c3nc(-c4ccncc4)cs3)nc2c1` [Example 37] the figure was 6.27.

The assay is the same for the next values; noted with them: marked (Q), not explained; read-out: IC50 (Q).
For `Oc1ccccc1-c1csc(-c2nc3ccccc3[nH]2)n1` [Example 17, 2-[2-(1H-Benzoimidazol-2-yl)-thiazol-4-yl]-phenol], the pIC50 is 7.10.
As to `c1ccc2[nH]c(-c3nc(-c4ccncc4)cs3)nc2c1` [Example 37], the pIC50 is 6.09.

The same assay, now with this note: read-out: 15-LO inhibitory activity, % @ 10 μM.
Turning to `N#Cc1cccc(-c2csc(-c3nc4ccccc4[nH]3)n2)c1` [Example 35, 3-[2-(1H-Benzoimidazol-2-yl)-thiazol-4-yl]-benzonitrile], the inhibition at 10 µM is 45%.
For the molecule `Oc1ccc(Br)cc1-c1csc(-c2nc3ccccc3[nH]2)n1` [Example 14, 2-[2-(1H-Benzoimidazol-2-yl)-thiazol-4-yl]-4-bromo-phenol], the inhibition at 10 µM was 91.3%.
For the molecule `O=C(Nc1sc(-c2nc3ccccc3[nH]2)nc1-c1ccccc1)OCc1ccccc1` [Example 34, [2-(1H-Benzoimidazol-2-yl)-4-phenyl-thiazol-5-yl]-carbamic acid benzyl ester], the inhibition at 10 µM is 89.2%.
On the same count and under the same terms, with `O=C(O)c1csc(-c2nc3ccccc3[nH]2)n1` [Example 31, 2-(1H-Benzoimidazol-2-yl)-thiazole-4-carboxylic acid] the figure was 1.38%; with `O=C(Nc1ccccc1)c1csc(-c2nc3ccccc3[nH]2)n1` [Example 33, 2-(1H-Benzoimidazol-2-yl)-thiazole-4-carboxylic acid phenylamide], 25.1%.
`CCOC(=O)c1sc(-c2nc3ccccc3[nH]2)nc1-c1ccccc1` [Example 28, 2-(1H-Benzoimidazol-2-yl)-4-phenyl-thiazole-5-carboxylic acid ethyl ester]: the inhibition at 10 µM is 69%.
As for `CCOC(=O)c1csc(-c2nc3ccccc3[nH]2)n1` [Example 30, 2-(1H-Benzoimidazol-2-yl)-thhiazole-4-carboxylic acid ethyl ester], the inhibition at 10 µM is 25%.
The same measure, in the same setting: with `Cc1ccc(-c2csc(-c3nc4ccccc4[nH]3)n2)cc1` [Example 18, 2-(4-p-Tolyl-thiazol-2-yl)-1H-benzoimidazole] the figure was 71.6%.
